Test results taken from patent US20070010488A1, “Compounds for modulating cell proliferation” (priority 2005, published 2007).
Several values for one entry are separate records, joined by “and”; a condition that tells them apart may be missing. Equal values may be shown once. Read-outs that look alike come from different tables or passages of the source.

Tests used:
[1] = test system: OCI-AML2 (AML); assay: Alamar Blue cell viability assay, OCI-AML2; format: cell-based; conditions: Homo sapiens, 72 hours
Procedure: (§1) Each test compound was weighed between the ranges of 0.5-2.0 mg, and then dissolved in a specified volume of DMSO to produce a solution of 10 mM. Appropriate dilutions in cell culture medium were made to produce a stock solution of 400 μM. All subsequent dilutions were also done in cell culture medium. This stock solution was then used for further dilutions to produce the initial concentration to be added to the 50 μL and 450 μL of cells in the 96-well and the 48-well microtiter plates, respectively:
(§2) The initial concentration for cells that were cultured in 50 μL 96-well plates was 40 μM. Once 50 μL of this test solution was added to the cells, this then produced a final dilution of 1:2, giving the desired concentration of 20 μM. Further 1:2 dilutions were made until the desired concentration of […] was reached.
(§3) Compound 1 was used as positive control at concentrations of 1 μM and 3 μM. […] C1 and OCI-AML2 and RPMI8226 cell culture media were assayed by addition of 20 μL of Alamar Blue reagent and incubated for 4 hours before reading. […]
(§4) 50 μL of cell culture medium containing the test compound was added to each well twenty four hours after seeding. […] Proliferation of cells was assessed using the fluorimetric Alamar Blue (CellTiter Blue) test and cell counting.
(§5) For the Alamar Blue assay, untreated cells were used as growth controls. Data were assessed in duplicates. […]

[2] = test system: MOLM-13 (AML); assay: Alamar Blue cell viability assay, MOLM-13; format: cell-based; conditions: Homo sapiens, 72 hours
Procedure: as §1
(§6) The initial concentration for cells that were cultured in 50 μL 96-well plates was 40 μM. […]
as §4
(§7) For the Alamar Blue assay, untreated cells were used as growth controls. Data were assessed in duplicates. […] The Alamar Blue cell viability assay was used to determine the IC50 concentrations for the inhibition of cell proliferation or induction of cell death by the ets articles as well as the reference Compound A. Primary data from all assays were plotted for each test compound, cell system and test concentration, with the y-axis representing the readout for cell proliferation/viability and the x-axis representing the compound concentration (μM). […]

[3] = test system: KASUMI-1 (AML); assay: Alamar Blue cell viability assay, KASUMI-1; format: cell-based; conditions: Homo sapiens, 72 hours
Procedure: as §1, §6, §4, §7

[4] = test system: SKM-1 (AML); assay: Alamar Blue cell viability assay, SKM-1; format: cell-based; conditions: Homo sapiens, 72 hours
Procedure: as §1, §6, §4, §7

[5] = test system: MV4-11 (AML); assay: Alamar Blue cell viability assay, MV4-11; format: cell-based; conditions: Homo sapiens, 72 hours
Procedure: as §1, §6, §4, §7

[6] = test system: C1 (T-ALL); assay: Alamar Blue cell viability assay, C1; format: cell-based; conditions: Homo sapiens, 72 hours
Procedure: as §1, §2, §3, §4, §5

[7] = test system: CCRF-CEM (T-ALL); assay: Alamar Blue cell viability assay, CCRF-CEM; format: cell-based; conditions: Homo sapiens, 72 hours
Procedure: as §1, §6, §4, §7

[8] = test system: MOLT-4 (T-ALL); assay: Alamar Blue cell viability assay, MOLT-4; format: cell-based; conditions: Homo sapiens, 72 hours
Procedure: as §1, §6, §4, §7

[9] = test system: PEER (B-ALL); assay: Alamar Blue cell viability assay, PEER; format: cell-based; conditions: Homo sapiens, 72 hours
Procedure: as §1, §6, §4, §7

[10] = test system: SUP-B15 (B-ALL); assay: Alamar Blue cell viability assay, SUP-B15; format: cell-based; conditions: Homo sapiens, 72 hours
Procedure: as §1, §6, §4, §7

[11] = test system: RS4-11 (B-ALL); assay: Alamar Blue cell viability assay, RS4-11; format: cell-based; conditions: Homo sapiens, 72 hours
Procedure: as §1, §6, §4, §7

[12] = test system: K562 (CML); assay: Trypan Blue Dye Exclusion and Cell Counting Assay, K562; format: cell-based; conditions: Homo sapiens, 72 hours
Procedure: as §1, §2
(§8) Compound 1 was used as positive control at concentrations of 1 μM and 3 μM. Cells were incubated with the test compounds for 72 hours. C1 and OCI-AML2 and RPMI8226 cell culture media were assayed by addition of 20 μL of Alamar Blue reagent and incubated for 4 hours before reading. Cell counting was utilised for K562 and DAUDI. [drawing 13] […]
as §4

[13] = test system: RPMI8226 (myeloma); assay: Alamar Blue cell viability assay, RPMI8226; format: cell-based; conditions: Homo sapiens, RPMI-8226, 72 hours
Procedure: as §1, §2, §3, §4, §5

[14] = test system: DAUDI (non-Hodgkin lymphoma); assay: Trypan Blue Dye Exclusion and Cell Counting Assay, DAUDI; format: cell-based; conditions: Homo sapiens, 72 hours
Procedure: as §1, §2, §8, §4

[15] = Mouse pharmacokinetics, intravenous and oral, plasma LC/MSMS; format: in vivo; conditions: Mice CD1; for bioavailability: read-out: Bioavailability factor
Procedure: Compound A (Stored at ca. +5° C.)
Formulation preparation for oral routes: […]
Animal Phase: • Species: Mice CD1 (supplied from Harlan, France) • Routes tested: Intravenous (Mice Nos.39 to 52 incl.), oral low dose (Mice Nos.53 to 63 incl.) and oral high dose (Mice Nos.65 to 76 incl.) • Animals were not fasted.
Times of blood sampling performed from the abdominal aorta (2 animals per time point): • Intravenous route (IV): 5 min, 15 min, 30 min, 1 h, 2 h, 6 h and 24 h • Oral routes (PO): 15 min, 30 min, 1 h, 3 h, 6 h and 24 h
Plasma was harvested by centrifugation of blood at 3500 g for 10 minutes at ca. +5° C.
Plasma was stored at ca. −20° C. until analysis.
Analytical method: LC/MSMS after extraction
Calibration undertaken in plasma (5 levels in mice, twice injected, ranging from 10 to 1000 ng.mL^−1)
HPLC Conditions: • Colonne: Zorbax C18 50×2.1 mm, 3.5 μm • Filter: A102X 5 μm • Injected volume: 20 μL • Mobile phase flow: 0.1 mL.min^−1 • Autosampler temperature: ca. +5° C. • Oven temperature: ca. +30° C. • Run time: 10 min • Mobile phase: deionized water with 0.1% formic acid/methanol with 0.1% formic acid; 30:70 v/v (isocratic) • Retention time: ca. 2.1 min
Extraction Method for Plasma Sample: • 50 μL of plasma combined with 100 μL of methanol • Vortexed a few seconds • Centrifuged 3 min at 13 000 rpm at ca. +5° C. • Diluted 50 μL of the supernatant with 50 μL of deionized water in a HPLC vial for injection • Vortexed a few seconds • Injected into the HPLC/MSMS system Extraction Method for Plasma Calibration Sample: • 50 μL of plasma sample combined with 100 μL of spiking solution • Vortexed a few seconds • Centrifuged 3 min at 13 000 rpm at ca. +5° C. • Diluted 50 μL of the supernatant with 50μL of deionized water in a HPLC vial for injection • Vortexed a few seconds • Injected into the HPLC/MSMS system Results: Animal and Analytical Phase Results: […]

[16] = mouse, plasma, intravenous 3.83 mg/kg
[17] = mouse, plasma, oral high dose 50.2 mg/kg
[18] = mouse, plasma, oral low dose 10.0 mg/kg

Compound: CCN1C/C(=C\c2cc(OC)c(OC)c(OC)c2)C(=O)/C(=C/c2cc(OC)c(OC)c(OC)c2)C1 [Compound A]
- IC50 [1]: 1030 nM
- IC50 [2]: 1900 nM
- IC50 [3]: 560 nM
- IC50 [4]: 560 nM
- IC50 [5]: 220 nM
- IC50 [6]: 180 nM
- IC50 [7]: 1180 nM
- IC50 [8]: 970 nM
- IC50 [9]: 720 nM
- IC50 [10]: 1030 nM
- IC50 [11]: 450 nM
- IC50 [12]: 2500 nM
- IC50 [13]: 1500 nM
- IC50 [14]: 550 nM
- concentration at 0.083 h ([15]; CD1, mouse, plasma, iv, 3.83 mg/kg, intravenous 3.83 mg/kg, 0.083 h, individual mice, read-out: Plasma levels): 200 ng/mL
- concentration at 0.25 h ([15]; CD1, mouse, plasma, iv, 3.83 mg/kg, intravenous 3.83 mg/kg, 0.25 h, individual mice, read-out: Plasma levels): 64.4 ng/mL
- concentration at 0.5 h ([15]; CD1, mouse, plasma, iv, 3.83 mg/kg, intravenous 3.83 mg/kg, 0.5 h, individual mice, read-out: Plasma levels): 57.5 ng/mL
- concentration at 2 h ([15]; CD1, mouse, plasma, iv, 3.83 mg/kg, intravenous 3.83 mg/kg, 2 h, individual mice, read-out: Plasma levels): 17.9 ng/mL
- concentration at 0.5 h ([15]; CD1, mouse, plasma, po, 10 mg/kg, oral low dose 10.0 mg/kg, 0.5 h, individual mice, read-out: Plasma levels): 71.7 ng/mL
- concentration at 1 h ([15]; CD1, mouse, plasma, po, 10 mg/kg, oral low dose 10.0 mg/kg, 1 h, individual mice, read-out: Plasma levels): 83.5 ng/mL
- concentration at 3 h ([15]; CD1, mouse, plasma, po, 10 mg/kg, oral low dose 10.0 mg/kg, 3 h, individual mice, read-out: Plasma levels): 41.7 ng/mL
- concentration at 24 h ([15]; CD1, mouse, plasma, po, 10 mg/kg, oral low dose 10.0 mg/kg, 24 h, individual mice, LOQ 10 ng · mL^−1, ND: Not Detectable, read-out: Plasma levels): 5.8 ng/mL
- concentration at 0.25 h ([15]; CD1, mouse, plasma, po, 50.2 mg/kg, oral high dose 50.2 mg/kg, 0.25 h, individual mice, read-out: Plasma levels): 819 ng/mL
- concentration at 0.5 h ([15]; CD1, mouse, plasma, po, 50.2 mg/kg, oral high dose 50.2 mg/kg, 0.5 h, individual mice, read-out: Plasma levels): 434 ng/mL
- concentration at 1 h ([15]; CD1, mouse, plasma, po, 50.2 mg/kg, oral high dose 50.2 mg/kg, 1 h, individual mice, read-out: Plasma levels): 175 ng/mL
- concentration at 3 h ([15]; CD1, mouse, plasma, po, 50.2 mg/kg, oral high dose 50.2 mg/kg, 3 h, individual mice, read-out: Plasma levels): 137 ng/mL
- % AUCextra ([15]; intravenous 3.83 mg/kg): 3.2%
- Plasma levels ([15]; intravenous 3.83 mg/kg, 0.083 h, individual mice, 3.83 mg/kg): 333.91 ng/mL
- Plasma levels ([15]; intravenous 3.83 mg/kg, 0.25 h, individual mice, 3.83 mg/kg): 85.28 ng/mL
- Plasma levels ([15]; intravenous 3.83 mg/kg, 0.5 h, individual mice, 3.83 mg/kg): 69.56 ng/mL
- Plasma levels ([15]; intravenous 3.83 mg/kg, 1 h, individual mice, 3.83 mg/kg): 80.73 ng/mL and 39.25 ng/mL
- Plasma levels ([15]; intravenous 3.83 mg/kg, 2 h, individual mice, 3.83 mg/kg): 12.9 ng/mL
- Plasma levels ([15]; intravenous 3.83 mg/kg, 6 h, individual mice, LOQ 10 ng · mL^−1, 3.83 mg/kg): 14.94 ng/mL and 7.29 ng/mL
- Plasma levels ([15]; intravenous 3.83 mg/kg, 24 h, individual mice, LOQ 10 ng · mL^−1, 3.83 mg/kg): 1.68 ng/mL and 0.36 ng/mL
- % AUCextra ([15]; oral high dose 50.2 mg/kg): 0.57%
- Plasma levels ([15]; oral high dose 50.2 mg/kg, 0.25 h, individual mice, 50.2 mg/kg): 444.58 ng/mL
- Plasma levels ([15]; oral high dose 50.2 mg/kg, 0.5 h, individual mice, 50.2 mg/kg): 393.99 ng/mL
- Plasma levels ([15]; oral high dose 50.2 mg/kg, 1 h, individual mice, 50.2 mg/kg): 213.68 ng/mL
- Plasma levels ([15]; oral high dose 50.2 mg/kg, 3 h, individual mice, 50.2 mg/kg): 160.65 ng/mL
- Plasma levels ([15]; oral high dose 50.2 mg/kg, 6 h, individual mice, 50.2 mg/kg): 23.07 ng/mL and 137.34 ng/mL
- Plasma levels ([15]; oral high dose 50.2 mg/kg, 24 h, individual mice, LOQ 10 ng · mL^−1, 50.2 mg/kg): 2.36 ng/mL and 1.04 ng/mL
- % AUCextra ([15]; oral low dose 10.0 mg/kg): 4.1%
- Plasma levels ([15]; oral low dose 10.0 mg/kg, 0.25 h, individual mice, 10 mg/kg): 67.54 ng/mL and 178.37 ng/mL
- Plasma levels ([15]; oral low dose 10.0 mg/kg, 0.5 h, individual mice, 10 mg/kg): 83.39 ng/mL
- Plasma levels ([15]; oral low dose 10.0 mg/kg, 1 h, individual mice, 10 mg/kg): 70.35 ng/mL
- Plasma levels ([15]; oral low dose 10.0 mg/kg, 3 h, individual mice, 10 mg/kg): 40.47 ng/mL
- Plasma levels ([15]; oral low dose 10.0 mg/kg, 6 h, individual mice, LOQ 10 ng · mL^−1, 10 mg/kg): 2.67 ng/mL and 6.30 ng/mL
- AUC [15, 16]: 254 ng·h/mL
- AUC(0-t) [15, 16]: 246 ng·h/mL
- Vd [15, 16]: 119 L/kg
- clearance ([15]; mouse, plasma, intravenous 3.83 mg/kg, read-out: Total Clearance (converted)): 251 mL/min/kg
- half-life ([15]; mouse, plasma, intravenous 3.83 mg/kg, read-out: T½ (converted)): 330 min
- AUC [15, 17]: 1400 ng·h/mL
- AUC(0-t) [15, 17]: 1390 ng·h/mL
- Cmax [15, 17]: 632 ng/mL
- Tmax [15, 17]: 15 min
- bioavailability ([15]; mouse, plasma, oral high dose 50.2 mg/kg vs intravenous): 43.4%
- AUC [15, 18]: 321 ng·h/mL
- AUC(0-t) [15, 18]: 308 ng·h/mL
- Cmax [15, 18]: 123 ng/mL
- Tmax [15, 18]: 15 min
- bioavailability ([15]; mouse, plasma, oral low dose 10.0 mg/kg vs intravenous): 48%
